Data from PubChem BioAssay AID1418 (Emory University Molecular Libraries Screening Center, 2008).
The source made the active and inactive calls. The rule behind the calls is not given here.

Biological target: Induced myeloid leukemia cell differentiation protein Mcl-1 (Homo sapiens) (UniProt Q07820)
Experiment: blockers of Bid binding to Mcl-1 – biochemical, TR-FRET, dose response (AID 1418)
Settings: Mcl-1/Bid peptide binding, TR-FRET (europium/Dy647), 2 hr

Sequence of Induced myeloid leukemia cell differentiation protein Mcl-1 (Homo sapiens) (Q07820 whole entry, looked up): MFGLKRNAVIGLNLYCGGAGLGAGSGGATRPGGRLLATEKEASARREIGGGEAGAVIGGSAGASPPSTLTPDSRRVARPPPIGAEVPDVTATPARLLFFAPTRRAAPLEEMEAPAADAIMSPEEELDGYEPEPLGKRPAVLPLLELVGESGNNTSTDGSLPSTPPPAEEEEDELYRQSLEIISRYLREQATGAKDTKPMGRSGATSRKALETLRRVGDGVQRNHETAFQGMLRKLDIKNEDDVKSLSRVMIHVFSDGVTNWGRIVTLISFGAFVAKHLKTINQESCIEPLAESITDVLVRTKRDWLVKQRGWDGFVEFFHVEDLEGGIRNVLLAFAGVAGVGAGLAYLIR

Compound | IC50
C#CCOCCOCCOCCNc1nc(N2CCN(C(=O)[C@H](CCC(=O)O)n3cc(C(N)CC(C)C)nn3)CC2)nc(N2CCN(C(=O)[C@H](CCC(=O)O)n3cc(C(N)[C@H](C)CC)nn3)CC2)n1 (some centres not stated) | 1 µM
CCCC(=O)Nc1nnc(-c2cccc(OCC)c2)s1 | > 54 µM (inactive)
Cn1c(SCc2nc3ccccc3s2)nnc1-c1ccc2c(c1)OCO2 | > 54 µM (inactive)
CC(=O)Oc1ccc(C(c2ccc(OC(C)=O)cc2)c2ccccn2)cc1 | > 54 µM (inactive)
O=C(N=Nc1c(O)[nH]c2ccc(Cl)cc12)c1cc(-c2cccs2)nc2ccccc12 | 0.57 µM
N=c1oc2cc(O)ccc2cc1C(=O)Nc1nc2ccccc2s1 | > 54 µM (inactive)
O=C(CCN1CCc2ccccc2C1)Nc1cccc(F)c1 | > 54 µM (inactive)
CCN1C(=O)c2cccc3c(NC(=O)C4CCCCC4)ccc1c23 | > 54 µM (inactive)
CCOC(=O)c1sc2nc3c(SCCC(=O)O)cc(C(=O)c4cc(OC)ccc4O)cn3c(=O)c2c1C | 1.66 µM
Cc1ccc(S(=O)(=O)/N=C(\CCl)N2CCOCC2)cc1 | > 54 µM (inactive)
Cc1ccc(-c2nn(CC(=O)NCc3cc(-c4nn(C)c(=O)c5ccccc45)ccc3C)c(=O)c3ccccc23)cc1 | 0.85 µM
CN1CCN(C(=S)c2cn(Cc3ccccc3F)c3ccccc23)CC1 | > 54 µM (inactive)
O=C1OC(c2cccs2)=N/C1=C/c1ccc(-c2cccc(C(=O)O)c2)o1 | 2.68 µM
COc1ccc(N2C(=O)/C(=C/C=C/c3ccccc3[N+](=O)[O-])C(=O)NC2=S)cc1 | 1.05 µM
C/C(=N\Nc1cccc(C(=O)O)c1)c1ccc2c(c1)Nc1ccccc1S2 | 0.76 µM
Oc1cc2c(cc1C(c1ccc(Cl)c(Cl)c1)N1CCCC1)OCO2 (configuration not stated) | 0.59 µM
Cc1ccc(-c2nc(CS(=O)CC(=O)N3CCC4(CC3)OCCO4)c(C)o2)cc1 (configuration not stated) | > 54 µM (inactive)
CCN1C(=O)/C(=C\c2ccc(-c3ccc([N+](=O)[O-])cc3OC)o2)SC1=Nc1cccc(C(=O)O)c1 | > 54 µM (inactive)
O=C(CSc1nnc(SCc2cccc3ccccc23)s1)N=Nc1c(O)[nH]c2ccccc12 | 3.51 µM
Cc1cc(=O)c2ccc(C(F)(F)F)cc2[nH]1 | > 54 µM (inactive)
COc1ccc(-c2nc(-n3c(C)c(C(C)=O)c(C(C)=O)c3C)sc2C)cc1 | > 54 µM (inactive)
COc1ccccc1CCc1nnc(CCC(=O)NC(C)Cc2cccnc2)o1 (configuration not stated) | > 54 µM (inactive)
COCCN1C(=O)C(=O)/C(=C(/O)c2ccc(S(=O)(=O)N3CCOCC3)cc2)C1c1cccc(Cl)c1 (configuration not stated) | > 54 µM (inactive)

Compound | IC50
C/C(=N/NC(=O)c1cc(-c2cccc([N+](=O)[O-])c2)n[nH]1)c1ccc(Cl)cc1 | 2.27 µM
Cc1ccccc1OCCNC(=O)CNC(=O)c1ccccc1O | > 54 µM (inactive)
CC(=O)c1cccc(NC(=O)C2CCN(C(=O)c3ccc([N+](=O)[O-])cc3)CC2)c1 | > 54 µM (inactive)
O=S(=O)(Nc1cccc(-c2cn3ccsc3n2)c1)c1ccc(F)cc1 | > 54 µM (inactive)
O=[N+]([O-])c1cc(Br)c(O)c(/C=N/Nc2nc3ccccc3s2)c1 | 1.16 µM
CCN(CC)c1ccc(NC(=O)Cn2c(C(C)NC(=O)c3ccc(C)cc3)nc3ccccc32)cc1 (configuration not stated) | 0.9 µM
COc1cc(/C=N/NC(=O)c2ccc(CN3c4cccc5cccc(c45)S3(=O)=O)cc2)cc(OC)c1O | 1.41 µM
COc1cccc(OC)c1C(=O)N1CCN(c2ccccn2)CC1 | > 54 µM (inactive)
Cc1ccc2nc(SC(C)C(=O)NC3CCCc4ccccc43)[nH]c2c1 (configuration not stated) | > 54 µM (inactive)
COc1cccc(-n2c(SCc3ccccn3)nc3c(c2=O)SCC3)c1 | > 54 µM (inactive)
CN(C1=NC(=O)CS1)c1ccc(O)cc1 | > 54 µM (inactive)
CC1CCC(C(C)C)C(OC(=O)C[n+]2cc(-c3ccc(Cl)cc3)n3c2CCC3)C1 (configuration not stated) | > 54 µM (inactive)
Cc1cc(=O)oc2cc(OCC(=O)N/N=C/c3cc([N+](=O)[O-])ccc3O)ccc12 | 5.58 µM
COc1ccc(C(=O)Nc2nc3cc(OC)c(OC)cc3c(=O)[nH]2)cc1 | > 54 µM (inactive)
O=c1c(O)cccc2cc(O)c(O)c(O)c12 | 0.92 µM
COc1ccc(NC(=O)Nc2nnc(CC(=O)NCc3ccccc3)s2)cc1 | > 54 µM (inactive)
CCn1c(C)cc(/C=C2\NC(=O)N(Cc3ccc(Cl)cc3)C2=O)c1C | 9.26 µM
CC(=O)c1c(N=CN(C)C)nc(C)nc1-c1ccccc1 | > 54 µM (inactive)
NS(=O)(=O)c1ccc(CCNC(=O)C(=O)c2c[nH]c3ccccc23)cc1 | > 54 µM (inactive)
CCO[C@@H]1OC(C(=O)N2CCN(Cc3ccccc3)CC2)=C[C@H](C2CC2)[C@H]1CCCO | > 54 µM (inactive)
O=C(N=Nc1c(O)[nH]c2ccc(Br)cc12)c1cc(-c2cccs2)nc2ccccc12 | 0.54 µM
Cc1cc(-c2nc3c4c5c(sc4[nH]c(=O)n3n2)CCC5)c(C)o1 | > 54 µM (inactive)
O=C(CSc1nnc(-c2ccncc2)o1)NCc1ccccc1Cl | > 54 µM (inactive)

Compound | IC50
CCn1c(SCC(=O)NCc2ccco2)nnc1-c1ccc(N)cc1 | > 54 µM (inactive)
O=C(Nc1ccc(F)cc1)Nc1ccc(Oc2ncnc3cc(Cl)ccc23)nc1 | > 54 µM (inactive)
COc1ccc2c(=O)c3c(=O)n(CCc4ccccc4)c(C(C)C)nc3oc2c1 | > 54 µM (inactive)
O=C1c2cccc3cc([N+](=O)[O-])cc(c23)C(=O)N1/N=C/c1ccc(O)cc1O | 0.82 µM
COc1cc(OC)c2c(O)c3c(c(-c4c5c(c(O)c6c(OC)cc(OC)cc46)CO[C@@H](C)[C@H]5O)c2c1)[C@H](O)[C@H](C)OC3 | 14.4 µM
Cc1ccc(C)c(NC(=O)C2CCCN2/C=C/C(=O)C(F)(F)F)c1 (configuration not stated) | > 54 µM (inactive)
COc1cccc(C(=O)Nc2ccc3nc(N4CCN(c5ncccn5)CC4)cc(C)c3c2)c1OC | 0.53 µM
Cc1ccc(C)c(OCC(=O)Nc2ccc3c(c2)OCO3)c1C | > 54 µM (inactive)
CCOC(=O)Cc1csc(NC(=O)CSc2nnnn2-c2ccc(C)c(C)c2)n1 | > 54 µM (inactive)
CCOC(=O)c1ccc(NC(=O)Oc2ccccc2)cc1 | > 54 µM (inactive)
Cc1cccc(NC(=O)c2cc(N3C(=O)CCC3=O)ccc2Cl)n1 | > 54 µM (inactive)
Cc1cc(C)nc(NCC(O)COc2ccccc2C)n1 (configuration not stated) | > 54 µM (inactive)
O=C(O)c1cc(-c2ccc(/C=C3/SC(=S)N(Cc4ccccc4)C3=O)o2)ccc1Cl | 1.7 µM
Nc1c(C(=O)NCCc2ccccc2)c2nc3ccccc3nc2n1CCN1CCOCC1 | > 54 µM (inactive)
CC1(c2ccccc2)CC(C)(C)N2C(=O)/C(=C3\SC(=S)NC3=O)c3cccc1c32 (configuration not stated) | 2.16 µM
O=C(O)C[C@@H]1C(=O)O[C@@H]2C(COC(=O)c3cc(O)c(O)c(O)c3)O[C@@H](OC(=O)c3cc(O)c(O)c(O)c3)[C@@H](OC(=O)c3cc(O)c(O)c4c3[C@H]1[C@H](O)C(=O)O4)[C@H]2OC(=O)c1cc(O)c(O)c(O)c1 (some centres not stated) | 0.95 µM
COc1ccc(C)cc1S(=O)(=O)N(C)CC(=O)NCc1ccco1 | > 54 µM (inactive)
COc1cccc2c1nc(C)c1cc(C)oc12 | > 54 µM (inactive)
CC(C)NC(=O)c1ccc(COCC(F)(F)F)cc1 | > 54 µM (inactive)
Nc1ccccc1Nc1ccccc1 | > 54 µM (inactive)
COC(=O)c1ccc(=O)c2nc3/c(=C/O)c(O)cc(=O)c3[nH]c12 | 3.23 µM
